Experiments:
Assay type in all cases: in vivo
[1] = system: ducksalad (Heteranthera limosa); assay: Test B flooded paddy test; details: Heteranthera limosa, Flood, 250 g ai/ha; scale of 0 to 100 where 0 is no effect and 100 is complete control; read-out: Ducksalad plant response rating
Summary of the method: (§1)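 Rating scale 0–100 (visual, vs untreated controls) after a 13–15 d greenhouse period; application to the flood layer, 3 cm above soil and maintained; plants at 2-leaf stage when treated.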

[2] = system: rice (Oryra sativa); assay: Test B flooded paddy test; details: Oryza sativa, Flood, 250 g ai/ha; scale of 0 to 100 where 0 is no effect and 100 is complete control; read-out: Rice plant response rating
Summary of the method: as §1

[3] = system: barnyardgrass (Echinochloa crus-galli); assay: Test B flooded paddy test; details: Echinochloa crus-galli, Flood, 250 g ai/ha; scale of 0 to 100 where 0 is no effect and 100 is complete control; read-out: Barnyardgrass plant response rating
Summary of the method: as §1

[4] = system: sedge, umbrella (small-flower umbrella sedge, Cyperus difformis); assay: Test B flooded paddy test; details: Cyperus difformis, Flood, 250 g ai/ha; scale of 0 to 100 where 0 is no effect and 100 is complete control; read-out: Sedge, Umbrella plant response rating
Summary of the method: as §1

[5] = system: Kochia (Kochia scoparia); assay: Test A preemergence; details: Bassia scoparia, pre-emergence, 240 h
Summary of the method: (§2)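 Treatment is preemergence as a directed soil spray after planting, or postemergence at the one- to two-leaf stage, with test chemical in a non-phytotoxic solvent mixture plus surfactant. Plants stay in the greenhouse about 10 d before visual injury scoring on a 0 to 100 scale versus untreated controls.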

[6] = system: ragweed (common ragweed, Ambrosia elatior); assay: Test A preemergence; details: Ambrosia artemisiifolia, pre-emergence, 240 h
Summary of the method: as §2

[7] = system: pigweed (Amaranthus retroflexus); assay: Test A preemergence; details: Amaranthus retroflexus, pre-emergence, 240 h
[8] = system: barnyardgrass (Echinochloa crus-galli); assay: Test A preemergence; details: Echinochloa crus-galli, pre-emergence, 240 h
Summary of the method: as §2

[9] = system: giant foxtail (Setaria faberii); assay: Test A preemergence; details: Setaria faberi, pre-emergence, 240 h
Summary of the method: as §2

[10] = system: ryegrass, Italian (Italian ryegrass, Lolium multiflorum); assay: Test A preemergence; details: Lolium multiflorum, pre-emergence, 240 h
Summary of the method: as §2

[11] = system: Kochia (Kochia scoparia); assay: Test A postemergence; details: Bassia scoparia, post-emergence, 240 h, 125 g ai/ha, Postemergence; visual injury after approximately 10 d; 0 to 100 scale where 0 is no effect and 100 is complete control; read-out: Plant response rating, Kochia
Summary of the method: as §2

[12] = system: ragweed (common ragweed, Ambrosia elatior); assay: Test A postemergence; details: Ambrosia artemisiifolia, post-emergence, 240 h, 125 g ai/ha, Postemergence; visual injury after approximately 10 d; 0 to 100 scale where 0 is no effect and 100 is complete control; read-out: Plant response rating, Ragweed
Summary of the method: as §2

[13] = system: corn (Zea mays); assay: Test A postemergence; details: Zea mays, post-emergence, 240 h, 125 g ai/ha, Postemergence; visual injury after approximately 10 d; 0 to 100 scale where 0 is no effect and 100 is complete control
Summary of the method: as §2

[14] = system: blackgrass (Alopecurus myosuroides); assay: Test A postemergence; details: Alopecurus myosuroides, post-emergence, 240 h, 125 g ai/ha, Postemergence; visual injury after approximately 10 d; 0 to 100 scale where 0 is no effect and 100 is complete control; read-out: Plant response rating, Blackgrass
Summary of the method: as §2

[15] = system: Galium (catchweed bedstraw, Galium aparine); assay: Test A postemergence; details: Galium, post-emergence, 240 h, 125 g ai/ha, Postemergence; visual injury after approximately 10 d; 0 to 100 scale where 0 is no effect and 100 is complete control; read-out: Plant response rating, Galium
Summary of the method: as §2

[16] = system: pigweed (Amaranthus retroflexus); assay: Test A postemergence; details: Amaranthus retroflexus, post-emergence, 240 h, 125 g ai/ha, Postemergence; visual injury after approximately 10 d; 0 to 100 scale where 0 is no effect and 100 is complete control; read-out: Plant response rating, Pigweed
Summary of the method: as §2

[17] = system: barnyardgrass (Echinochloa crus-galli); assay: Test A postemergence; details: Echinochloa crus-galli, post-emergence, 240 h, 125 g ai/ha, Postemergence; visual injury after approximately 10 d; 0 to 100 scale where 0 is no effect and 100 is complete control; read-out: Plant response rating, Barnyardgrass
Summary of the method: as §2

[18] = system: wheat (Triticum aestivum); assay: Test A postemergence; details: Triticum aestivum, post-emergence, 240 h, 125 g ai/ha, Postemergence; visual injury after approximately 10 d; 0 to 100 scale where 0 is no effect and 100 is complete control; read-out: Plant response rating, Wheat
Summary of the method: as §2

[19] = system: giant foxtail (Setaria faberii); assay: Test A postemergence; details: Setaria faberi, post-emergence, 240 h, 125 g ai/ha, Postemergence; visual injury after approximately 10 d; 0 to 100 scale where 0 is no effect and 100 is complete control; read-out: Plant response rating, Foxtail, Giant
Summary of the method: as §2

[20] = system: ryegrass, Italian (Italian ryegrass, Lolium multiflorum); assay: Test A postemergence; details: Lolium multiflorum, post-emergence, 240 h, 125 g ai/ha, Postemergence; visual injury after approximately 10 d; 0 to 100 scale where 0 is no effect and 100 is complete control; read-out: Plant response rating, Ryegrass, Italian
Summary of the method: as §2

O=C1NC[C@H](c2csc(C(F)(F)F)c2)[C@H]1C(=O)Nc1cccc(F)c1F [Compound 957]
70%: pest or weed control at 125 g/ha ([8]; 125 g ai/ha, Preemergence, visual injury rating after approximately 10 d, read-out: Barnyardgrass plant response rating (0 to 100 scale, 0 is no effect, 100 is complete control)) | pest or weed control at 500 g/ha ([9]; 500 g ai/ha, preemergence, visual injury rating about 10 d after treatment, 0 to 100 scale (0 no effect, 100 complete control), read-out: Foxtail, Giant plant response rating)
100%: pest or weed control at 250 g/ha [1] | pest or weed control at 500 g/ha ([8]; 500 g ai/ha, preemergence, visual injury rating about 10 d after treatment, 0 to 100 scale (0 no effect, 100 complete control), read-out: Barnyardgrass plant response rating)
20%: pest or weed control at 125 g/ha ([7]; 125 g ai/ha, Preemergence, visual injury rating after approximately 10 d, read-out: Pigweed plant response rating (0 to 100 scale, 0 is no effect, 100 is complete control)) | pest or weed control at 500 g/ha ([7]; 500 g ai/ha, preemergence, visual injury rating about 10 d after treatment, 0 to 100 scale (0 no effect, 100 complete control), read-out: Pigweed plant response rating) | pest or weed control at 125 g/ha ([9]; 125 g ai/ha, Preemergence, visual injury rating after approximately 10 d, read-out: Foxtail, Giant plant response rating (0 to 100 scale, 0 is no effect, 100 is complete control)) | pest or weed control at 125 g/ha [11] | pest or weed control at 125 g/ha [14] | pest or weed control at 125 g/ha [20]
30%: pest or weed control at 250 g/ha [3] | pest or weed control at 125 g/ha ([5]; 125 g ai/ha, Preemergence, visual injury rating after approximately 10 d, read-out: Kochia plant response rating (0 to 100 scale, 0 is no effect, 100 is complete control)) | pest or weed control at 500 g/ha ([6]; 500 g ai/ha, preemergence, visual injury rating about 10 d after treatment, 0 to 100 scale (0 no effect, 100 complete control), read-out: Ragweed plant response rating)
40%: pest or weed control at 500 g/ha ([10]; 500 g ai/ha, preemergence, visual injury rating about 10 d after treatment, 0 to 100 scale (0 no effect, 100 complete control), read-out: Ryegrass, Italian plant response rating) | pest or weed control at 125 g/ha [15]
0%: pest or weed control at 250 g/ha [2] | pest or weed control at 250 g/ha [4] | pest or weed control at 125 g/ha ([6]; 125 g ai/ha, Preemergence, visual injury rating after approximately 10 d, read-out: Ragweed plant response rating (0 to 100 scale, 0 is no effect, 100 is complete control)) | pest or weed control at 125 g/ha ([10]; 125 g ai/ha, Preemergence, visual injury rating after approximately 10 d, read-out: Ryegrass, Italian plant response rating (0 to 100 scale, 0 is no effect, 100 is complete control)) | pest or weed control at 125 g/ha [12] | Corn plant response rating (crop injury, 0 = no effect, 100 = complete kill) at 125 g/ha [13] | pest or weed control at 125 g/ha [16] | plant injury at 125 g/ha [18] | pest or weed control at 125 g/ha [19]
80%: pest or weed control at 500 g/ha ([5]; 500 g ai/ha, preemergence, visual injury rating about 10 d after treatment, 0 to 100 scale (0 no effect, 100 complete control), read-out: Kochia plant response rating) | pest or weed control at 125 g/ha [17]

Reference: patent US12077503B2, “Substituted cyclic amides and their use as herbicides” (FMC CORPORATION, priority 2015, dated 2024)
